Legend:
786-0 = settings: 10 μM single dose; Renal Cancer 786-0
Source text: (§1) The test compounds were screened for anticancer activity at the Development Therapeutic Program (DTP), National Cancer Institute (NCI), USA, against a full NCI 59 cell line panel (six cell lines of leukemia, nine cell lines of lung cancer, seven cell lines of colon cancer, six cell lines of CNS cancer, nine cell lines of melanoma, seven cell lines of ovarian cancer, seven cell lines of renal cancer, two cell lines of prostate cancer, and six cell lines of breast cancer) representing nine human systems in total as leukemia, melanoma, and cancers of the lungs, colon, brain, breast, ovary, kidney, and prostate, according to the applied protocol. A primary in vitro one dose anticancer assay was performed at a single dose (10 μM) against the full NCI 59 cell line panel. The one dose data was reported as a mean graph of the percent growth of treated cells. The number reported for the single dose assay was growth relative to the no drug control and relative to the initial number of cells at time 0. […] A value of −40 means 40% lethality. A value of −100 means all cells are dead.

A498 = settings: 10 μM single dose; Renal Cancer A498
Source text: as §1

A549/ATCC = settings: 10 μM single dose; Non-Small Cell Lung Cancer A549/ATCC
Source text: as §1

ACHN = settings: 10 μM single dose; Renal Cancer ACHN
Source text: as §1

CCRF-CEM = settings: 10 μM single dose; Leukemia CCRF-CEM
Source text: as §1

EKVX = settings: 10 μM single dose; Non-Small Cell Lung Cancer EKVX
Source text: as §1

HCC-2998 = settings: 10 μM single dose; Colon Cancer HCC-2998
Source text: as §1

HCT-116 = settings: 10 μM single dose; Colon Cancer HCT-116
Source text: as §1

HS 578T = settings: 10 μM single dose; Breast Cancer HS 578T
Source text: as §1

K-562 = settings: 10 μM single dose; Leukemia K-562
Source text: as §1

KM12 = settings: 10 μM single dose; Colon Cancer KM12
Source text: as §1

LOX IMVI = settings: 10 μM single dose; Melanoma LOX IMVI
Source text: as §1

M14 = settings: 10 μM single dose; Melanoma M14
Source text: as §1

MCF7 = settings: 10 μM single dose; Breast Cancer MCF7
Source text: as §1

MDA-MB-231/ATCC = settings: 10 μM single dose; Breast Cancer MDA-MB-231/ATCC
Source text: as §1

MDA-MB-435 = settings: 10 μM single dose; Melanoma MDA-MB-435
Source text: as §1

MDA-MB-468 = settings: 10 μM single dose; Breast Cancer MDA-MB-468
Source text: as §1

MOLT-4 = settings: 10 μM single dose; Leukemia MOLT-4
Source text: as §1

NCI-H226 = settings: 10 μM single dose; Non-Small Cell Lung Cancer NCI-H226
Source text: as §1

NCI-H322M = settings: 10 μM single dose; Non-Small Cell Lung Cancer NCI-H322M
Source text: as §1

NCI-H460 = settings: 10 μM single dose; Non-Small Cell Lung Cancer NCI-H460
Source text: as §1

NCI/ADR-RES = settings: 10 μM single dose; Ovarian Cancer NCI/ADR-RES
Source text: as §1

OVCAR-4 = settings: 10 μM single dose; Ovarian Cancer OVCAR-4
Source text: as §1

OVCAR-5 = settings: 10 μM single dose; Ovarian Cancer OVCAR-5
Source text: as §1

OVCAR-8 = settings: 10 μM single dose; Ovarian Cancer OVCAR-8
Source text: as §1

PC-3 = settings: 10 μM single dose; Prostate Cancer PC-3
Source text: as §1

RPMI-8226 = settings: 10 μM single dose; Leukemia RPMI-8226
Source text: as §1

SF-268 = settings: 10 μM single dose; CNS Cancer SF-268
Source text: as §1

SF-295 = settings: 10 μM single dose; CNS Cancer SF-295
Source text: as §1

SF-539 = settings: 10 μM single dose; CNS Cancer SF-539
Source text: as §1

SK-MEL-28 = settings: 10 μM single dose; Melanoma SK-MEL-28
Source text: as §1

SK-MEL-2 = settings: 10 μM single dose; Melanoma SK-MEL-2
Source text: as §1

SK-MEL-5 = settings: 10 μM single dose; Melanoma SK-MEL-5
Source text: as §1

SNB-19 = settings: 10 μM single dose; CNS Cancer SNB-19
Source text: as §1

SR = settings: 10 μM single dose; Leukemia SR
Source text: as §1

U251 = settings: 10 μM single dose; CNS Cancer U251
Source text: as §1

UACC-62 = settings: 10 μM single dose; Melanoma UACC-62
Source text: as §1

Row | SMILES | Growth Percentage (786-0) [%] | Growth Percentage (A498) [%] | Growth Percentage (A549/ATCC) [%] | Growth Percentage (ACHN) [%] | Growth Percentage (CCRF-CEM) [%] | Growth Percentage (EKVX) [%] | Growth Percentage (HCC-2998) [%] | Growth Percentage (HCT-116) [%] | Growth Percentage (HS 578T) [%] | Growth Percentage (K-562) [%] | Growth Percentage (KM12) [%] | Growth Percentage (LOX IMVI) [%] | Growth Percentage (M14) [%] | Growth Percentage (MCF7) [%] | Growth Percentage (MDA-MB-231/ATCC) [%] | Growth Percentage (MDA-MB-435) [%] | Growth Percentage (MDA-MB-468) [%] | Growth Percentage (MOLT-4) [%] | Growth Percentage (NCI-H226) [%] | Growth Percentage (NCI-H322M) [%] | other results
1 | [2H]C1([2H])NC([2H])([2H])C([2H])(c2ccc(-n3cc4cccc(C(N)=O)c4n3)cc2)C([2H])([2H])C1([2H])[2H] (racemic) [Example 3, 2-(4-(piperidin-3-yl-2,2,3,4,4,5,5,6,6-d9)phenyl)-2H-indazole-7-carboxamide] | 103.31 | 90.94 | 67.74 | 77.21 | 87.92 | 100.49 | 88.49 | 83.66 | 86.68 | 89.73 | 99.34 | 76.95 | 98.03 | 75.22 | 83.62 | 98.88 | 109.78 | 86.53 | 93.61 | 98.96 | Growth Percentage (NCI-H460): 86.91%; Growth Percentage (NCI/ADR-RES): 97.76%; Growth Percentage (OVCAR-4): 106.31%; Growth Percentage (OVCAR-5): 100.56%; Growth Percentage (OVCAR-8): 81.93%; Growth Percentage (PC-3): 80.86%; Growth Percentage (RPMI-8226): 87.86%; Growth Percentage (SF-268): 88.94%; Growth Percentage (SF-295): 96.74%; Growth Percentage (SF-539): 96.82%; Growth Percentage (SK-MEL-28): 107.36%; Growth Percentage (SK-MEL-2): 117.90%; Growth Percentage (SK-MEL-5): 93.38%; Growth Percentage (SNB-19): 91.61%; Growth Percentage (SR): 59.44%; Growth Percentage (U251): 85.78%; Growth Percentage (UACC-62): 84.84%
2 | [2H]c1c([2H])c(-n2nc3c(C(N)=O)cccc3c2[2H])c([2H])c([2H])c1C1CCCNC1 (racemic) [Example 11, 2-(4-(piperidin-3-yl)phenyl-2,3,5,6-d4)-2H-indazole-3-d-7-carboxamide] | 97.43 | 83.22 | 70.16 | 72.39 | 68.34 | 91.65 | 80.10 | 81.62 | 81.82 | 87.94 | 83.99 | 71.49 | 90.64 | 69.21 | 76.99 | 91.99 | 87.13 | 71.06 | 92.42 | 85.94 | Growth Percentage (NCI-H460): 80.76%; Growth Percentage (NCI/ADR-RES): 89.85%; Growth Percentage (OVCAR-4): 103.47%; Growth Percentage (OVCAR-5): 89.69%; Growth Percentage (OVCAR-8): 84.66%; Growth Percentage (PC-3): 68.67%; Growth Percentage (RPMI-8226): 78.32%; Growth Percentage (SF-268): 82.89%; Growth Percentage (SF-295): 90.94%; Growth Percentage (SF-539): 77.48%; Growth Percentage (SK-MEL-28): 101.33%; Growth Percentage (SK-MEL-2): 108.51%; Growth Percentage (SK-MEL-5): 91.06%; Growth Percentage (SNB-19): 85.34%; Growth Percentage (SR): 37.42%; Growth Percentage (U251): 92.89%; Growth Percentage (UACC-62): 76.75%
3 | [2H]c1c([2H])c(C2([2H])C([2H])NC([2H])C([2H])C2[2H])c([2H])c([2H])c1-n1cc2cccc(C(N)=O)c2n1 (stereo not drawn) [Example 4, 2-(4-(piperidin-3-yl-2,3,4,5,6-d5)phenyl-2,3,5,6-d4)-2H-indazole-7-carboxamide] | 92.79 | 89.03 | 67.08 | 72.83 | 89.50 | 88.21 | 83.97 | 77.22 | 86.01 | 77.76 | 87.65 | 70.64 | 84.68 | 64.30 | 80.47 | 92.97 | 86.59 | 78.10 | 91.01 | 84.01 | Growth Percentage (NCI-H460): 76.94%; Growth Percentage (NCI/ADR-RES): 84.74%; Growth Percentage (OVCAR-4): 98.64%; Growth Percentage (OVCAR-5): 89.23%; Growth Percentage (OVCAR-8): 82.86%; Growth Percentage (PC-3): 85.40%; Growth Percentage (RPMI-8226): 90.85%; Growth Percentage (SF-268): 89.52%; Growth Percentage (SF-295): 85.63%; Growth Percentage (SF-539): 82.30%; Growth Percentage (SK-MEL-28): 98.37%; Growth Percentage (SK-MEL-2): 101.94%; Growth Percentage (SK-MEL-5): 91.65%; Growth Percentage (SNB-19): 88.53%; Growth Percentage (SR): 47.47%; Growth Percentage (U251): 83.63%; Growth Percentage (UACC-62): 85.29%
